Converted amounts (≈) assume the structure as drawn.
Tests used:
[1] = system: Bacillus subtilis; assay: Antimicrobial activity against Bacillus subtilis (agar plate-cylinder); assay type: cell-based; conditions: standard bleomycin A2 (copper-free) assumed 1,000 mcg potency/mg
Experimental: (§1) 2. ANT[…] MYC[…] ATCC 607 AND BACILLUS SUBTILIS
(§2) The antimicrobial activity was tested against the captioned test organisms by the method of agar plate-cylinder. The activity was recorded on the assumption that the activity of standard sample of bleomycin A2 (copper-free form) is 1,000 mcg poteney/mg.

[2] = system: Mycobacterium smegmatis ATCC 607; assay: Antimicrobial activity against Mycobacterium smegmatis ATCC 607 (agar plate-cylinder); assay type: cell-based; conditions: standard bleomycin A2 (copper-free) assumed 1,000 mcg potency/mg
Experimental: as §1, §2

[3] = system: HeLa S3 cells; assay: Growth inhibitory activity against cultured HeLa S3 cells; assay type: cell-based; conditions: 3 days; for IC50: Homo sapiens, HeLa S3, 72 h, Cu-free, read-out: 50% Growth inhibitory concentration of Cu-free compd. against cultured HeLaS3 cells (ID50)
Experimental: 3. GROWTH INHIBITORY ACTIVITY AGAINST CULTURED HELA S3 CELLS
HeLa S3 cells were inoculated into a medium (MEM with 10% bovine serum) placed in a plastic petri dish. Two days thereafter, a bleomycin was added to the dish. After 3 days of breeding, the number of cells were counted. The percentage growth inhibition was calculated using the following equation:
Percentage inhibition (%)=100×(B-A)/(B-C) where A is the final number of cells after 3 days from the addition of test sample, B is the final number of cells in the control without addition of the test smaple, and C is the number of cells at the time of addition of the test sample.

[4] = target: T1, bleomycin-inactivating enzyme (Rattus norvegicus, UniProt P70645); assay: in vitro; conditions: liver extract
T1 sequence (P70645 1-454): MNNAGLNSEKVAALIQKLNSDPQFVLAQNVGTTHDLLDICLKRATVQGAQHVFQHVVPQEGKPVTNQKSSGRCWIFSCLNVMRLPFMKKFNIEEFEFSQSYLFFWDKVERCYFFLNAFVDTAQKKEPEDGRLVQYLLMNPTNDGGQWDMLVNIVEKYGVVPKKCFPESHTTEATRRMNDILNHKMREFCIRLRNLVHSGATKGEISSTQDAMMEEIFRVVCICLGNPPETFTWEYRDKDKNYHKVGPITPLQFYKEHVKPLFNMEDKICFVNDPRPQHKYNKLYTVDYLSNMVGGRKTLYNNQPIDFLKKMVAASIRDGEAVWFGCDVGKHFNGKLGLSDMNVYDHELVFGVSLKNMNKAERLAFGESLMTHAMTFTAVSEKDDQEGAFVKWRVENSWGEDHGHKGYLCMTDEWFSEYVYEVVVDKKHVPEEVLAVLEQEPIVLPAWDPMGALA

[5] = target: T1, bleomycin-inactivating enzyme; conditions: rated under conditions where inactivation of bleomycin B2 is 50%; 37° C., 40 minutes; residual activity against M. smegmatis ATCC 607
[6] = CDF1/SLC male mice, s.c. once a day for 10 days, Behrens-Karber, daily dose
Experimental: From the mortality during the administration period, LD50 (daily dose) was determined by the method of Behrens-Karber.

[7] = system: pulmonary fibrosis; assay: Pulmonary toxicity (pulmonary fibrosis) in mice; conditions: for Incidence: Number of mice with pulmonary fibrosis (%) / Incidence: Number of mice with pulmonary fibrosis / Grade: Total score of pulmonary fibrosis/total number of samples / Grade: Total score of pulmonary fibrosis/total number of samples (%): ICR mice, 5 mg/kg i.p. once a day for 10 days; for Incidence: Number of mice with pulmonary fibrosis (%) / Incidence: Number of mice with pulmonary fibrosis: 5 weeks observation; for Incidence: Number of mice with pulmonary fibrosis: mice with fibrosis/total; for Grade: Total score of pulmonary fibrosis/total number of samples / Grade: Total score of pulmonary fibrosis/total number of samples (%): points 0, 1, 2, 4, 6; for Ratio (by comparison with "Bleomycin Complex"): versus Bleomycin Complex

Row | Compound | Antimicrobial potency of Cu-free compound against Bacillus subtilis [1] | Antimicrobial potency of Cu-free compound against Mycobacterium smegmatis ATCC 607 [2] | 50% Growth inhibitory concentration of Cu-free compd. against cultured HeLaS3 cells (ID50) [3] | metabolised at 40 min [4] | IC50 [3] | Resistance of Cu-free compound against inactivating enzyme (degree of inactivation) [5] | LD50 during administration period of 10 consecutive days [6] | Incidence: Number of mice with pulmonary fibrosis (%) [7] | Incidence: Number of mice with pulmonary fibrosis [7] | Grade: Total score of pulmonary fibrosis/total number of samples [7] | Grade: Total score of pulmonary fibrosis/total number of samples (%) [7] | Ratio (by comparison with "Bleomycin Complex") [7]
1 | 4-Guanidinobutylamino-(amido)N--[1',6'-dimethylheptyl]-BLM [Compound 8] | 950 mcg potency/mg | 24880 mcg potency/mg | 0.62 µg/mL | – | – | – | – | – | – | – | – | –
2 | CNC(=O)C(N)CNC(CC(N)=O)c1nc(N)c(C)c(C(=O)NC(C(=O)NC(C)C(O)C(C)C(=O)NC(C(=O)NCCc2nc(-c3nc(C(=O)NCCc4c[nH]cn4)cs3)cs2)C(C)O)C(OC2OC(CO)C(O)C(O)C2OC2OC(CO)C(O)C(OC(N)=O)C2O)c2cnc[nH]2)n1 (stereo not shown) [Compound 1, 2-(4'-Imidazolyl)ethylamino-(amido)N--[methyl]-BLM] | 654 mcg potency/mg | 1447 mcg potency/mg | – | 5 to 14% | 1.2 µg/mL (≈ 0.845 µM) | – | – | – | – | – | – | –
3 | CCNC(=O)C(N)CNC(CC(N)=O)c1nc(N)c(C)c(C(=O)NC(C(=O)NC(C)C(O)C(C)C(=O)NC(C(=O)NCCc2nc(-c3nc(C(=O)NCCc4c[nH]cn4)cs3)cs2)C(C)O)C(OC2OC(CO)C(O)C(O)C2OC2OC(CO)C(O)C(OC(N)=O)C2O)c2cnc[nH]2)n1 (stereo not shown) [Compound 2, 2-(4'-Imidazolyl)ethylamino-(amido)N--[ethyl]-BLM] | 767 mcg potency/mg | 1895 mcg potency/mg | – | 15 to 24% | 0.98 µg/mL (≈ 0.683 µM) | – | – | – | – | – | – | –
4 | CCN(CC)CCCC(C)NC(=O)C(N)CNC(CC(N)=O)c1nc(N)c(C)c(C(=O)NC(C(=O)NC(C)C(O)C(C)C(=O)NC(C(=O)NCCc2nc(-c3nc(C(=O)NCCCNC(C)c4ccccc4)cs3)cs2)C(C)O)C(OC2OC(CO)C(O)C(O)C2OC2OC(CO)C(O)C(OC(N)=O)C2O)c2cnc[nH]2)n1 [Compound 36, 3-((S)-1'-phenylethylamino)propylamino-(amido)N--[4-diethylamino-1-methylbutyl]-BLM] | 3694 mcg potency/mg | 6061 mcg potency/mg | – | – | – | + +++ | – | – | – | – | – | –
5 | Cc1c(N)nc(C(CC(N)=O)NCC(N)C(=O)NCCCNC(C)c2ccccc2)nc1C(=O)NC(C(=O)NC(C)C(O)C(C)C(=O)NC(C(=O)NCCc1nc(-c2nc(C(=O)NCCC[N+](C)(C)CCCN(Cc3ccccc3)Cc3ccccc3)cs2)cs1)C(C)O)C(OC1OC(CO)C(O)C(O)C1OC1OC(CO)C(O)C(OC(N)=O)C1O)c1cnc[nH]1 [Compound 52, 3-{N,N--dimethyl-N--[dibenzylamino)propyl]amino}-propylamino-(amido)N--[3-((S)-1'-phenyl)aminopropyl]-BLM] | 2372 mcg potency/mg | 21371 mcg potency/mg | – | – | – | – | 13.9 mg/kg/day | 0% | 0/9 | 0/27 | 0% | 0
6 | CCCCCCCCNC(=O)C(N)CNC(CC(N)=O)c1nc(N)c(C)c(C(=O)NC(C(=O)NC(C)C(O)C(C)C(=O)NC(C(=O)NCCc2nc(-c3nc(C(=O)NCCC[N+](C)(C)CCCN(Cc4ccccc4)Cc4ccccc4)cs3)cs2)C(C)O)C(OC2OC(CO)C(O)C(O)C2OC2OC(CO)C(O)C(OC(N)=O)C2O)c2cnc[nH]2)n1 (stereo not shown) [Compound 53, 3-{N,N--dimethyl-N--[3-(dibenzylamino)propyl]amino}-propylamino-(amido)N--[n-octyl]-BLM] | 595 mcg potency/mg | 40703 mcg potency/mg | – | – | – | – | 15.0 mg/kg/day | 0% | 0/9 | 0/27 | 0% | 0
7 | CCCCN(CCCC)CCCNC(=O)C(N)CNC(CC(N)=O)c1nc(N)c(C)c(C(=O)NC(C(=O)NC(C)C(O)C(C)C(=O)NC(C(=O)NCCc2nc(-c3nc(C(=O)NCCC[N+](CC)(CC)CCCN(Cc4ccccc4)Cc4ccccc4)cs3)cs2)C(C)O)C(OC2OC(CO)C(O)C(O)C2OC2OC(CO)C(O)C(OC(N)=O)C2O)c2cnc[nH]2)n1 (stereo not shown) [Compound 57, 3-{N,N--diethyl-N--[3-(dibenzylamino)propyl]amino}propylamino-(amido)N--[3-(di-n-butylamino)propyl]-BLM] | 1831 mcg potency/mg | 25924 mcg potency/mg | – | – | – | +++ + | – | 0% | 0/9 | 0/27 | 0% | 0
8 | Cc1c(N)nc(C(CC(N)=O)NCC(N)C(=O)NCCCNC(C)c2ccccc2)nc1C(=O)NC(C(=O)NC(C)C(O)C(C)C(=O)NC(C(=O)NCCc1nc(-c2nc(C(=O)NCCCN(C)CCCN(Cc3ccc(OCc4ccccc4)c(OCc4ccccc4)c3)Cc3ccc(OCc4ccccc4)c(OCc4ccccc4)c3)cs2)cs1)C(C)O)C(OC1OC(CO)C(O)C(O)C1OC1OC(CO)C(O)C(OC(N)=O)C1O)c1cnc[nH]1 [Compound 64, 3-{N--methyl-N--[3-bis(m,p-dibenzyloxybenzyl)aminopropyl]amino}-propylamino-(amido)N--[3-((S)-1'-phenylethyl)aminopropyl]-BLM] | 23 mcg potency/mg | 115 mcg potency/mg | – | – | – | – | > 81.4 mg/kg/day | 0% | 0/9 | 0/27 | 0% | 0
9 | CCCCCCCCNC(=O)C(N)CNC(CC(N)=O)c1nc(N)c(C)c(C(=O)NC(C(=O)NC(C)C(O)C(C)C(=O)NC(C(=O)NCCc2nc(-c3nc(C(=O)NCCCN(C)CCCN(Cc4ccc(OCc5ccccc5)c(OCc5ccccc5)c4)Cc4ccc(OCc5ccccc5)c(OCc5ccccc5)c4)cs3)cs2)C(C)O)C(OC2OC(CO)C(O)C(O)C2OC2OC(CO)C(O)C(OC(N)=O)C2O)c2cnc[nH]2)n1 (stereo not shown) [Compound 65, 3-{N--methyl-N--[3-bis(m,p-dibenzyloxybenzyl)aminopropyl]amino}-propylamino-(amido)N--[n-octyl]-BLM] | 13 mcg potency/mg | 153 mcg potency/mg | – | – | – | – | > 75.7 mg/kg/day | 0% | 0/9 | 0/27 | 0% | 0
10 | Cc1c(N)nc(C(CC(N)=O)NCC(N)C(N)=O)nc1C(=O)NC(C(=O)NC(C)C(O)C(C)C(=O)NC(C(=O)NCCc1nc(-c2nc(C(=O)NCCCCNC(=N)N)cs2)cs1)C(C)O)C(OC1OC(CO)C(O)C(O)C1OC1OC(CO)C(O)C(OC(N)=O)C1O)c1cnc[nH]1 (stereo not shown) [bleomycin B2, reference compound] | – | – | – | 50% | – | – | – | – | – | – | – | –

Reference: US4472304A, “(Amido)N-substituted bleomycins, salts thereof and process for preparation thereof” (Nippon Kayaku Kabushiki Kaisha, priority 1981, dated 1984)
